One assay deals with T1, Syk (Homo sapiens, UniProt P43405).
T1 construct: purchased BPS Bioscience, CA, USA
Kind of assay: Syk enzyme assay (flash plate / Caliper mobility shift). It counts as biochemical. In outline:
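Flashplate format used 2.5 nM SYK, 400 nM biotinylated peptide and 10 µM ATP with 33P tracer, pH 7.5, 1 h at 30 °C, read by radioactivity. Caliper format ran 90 min at 25 °C in HEPES pH 7.5, reading percent peptide conversion by mobility shift. IC50s came from dose-response curves.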

In the next assay the target is T2, KDR (Homo sapiens, UniProt P35968).
T2 construct: purchased BPS Bioscience, CA, USA
Kind of assay: KDR enzymatic assay (Caliper LifeSciences technology). It counts as biochemical. In outline:
(§1)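 Off-chip mobility-shift assay quantifying conversion of a fluorescent peptide substrate to phosphorylated product. Reactions in 100 mM HEPES pH 7.5, 1 mM DTT, 1 mM MgCl2, 0.015% Brij-35, 90 min at 25 C, stopped with EDTA. IC50 from sigmoidal fit of percent conversion versus inhibitor concentration.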

The next assay concerns Ramos cells. Kind of assay: BCR crosslinking-induced BLNK phosphorylation (BLNK cell assay). Conditions: Homo sapiens. It counts as cell-based. The protocol: 1. BCR Crosslinking-Induced BLNK Phosphorylation
Ramos cells incubated overnight in IMDM medium containing 5% FCS were resuspended in IMDM medium without serum (3.3×10^6 cells/ml). 90 μl of cell suspension (300′000 cells) were incubated with 10 μl of SYK inhibitors (in 3% DMSO) for 20 minutes at 37° C., in 96 well plates. After preincubation with inhibitors, cells were activated with 10 μg/ml of goat antihuman anti-IgM for 10 minutes at 37° C. After stimulation, cells were fixed by addition of 80 μl of 4% paraformaldehyde followed by a 10 minutes incubation at RT and […] in 0.1% Triton X-100 in PBS. BLNK phosphorylation was detected by flow cytometry after staining of the cells with anti-BLNK-pY84-PE antibodies from BD pharmingen, for 45 minutes at RT. […]

For a further assay, the target named is T3, Src (Homo sapiens, UniProt P12931).
T3 construct: purchased Carna Bioscience, Kobe, Japan
Put plainly: cSrc enzymatic assay (Caliper LifeSciences technology). Type of assay: biochemical. The protocol:
Enzymatic Assays Using the Caliper LifeSciences Technology
The assays described here are performed on the Caliper Life Sciences LC3000 system This technology provides data on enzyme activity via measurement of the relative amounts of phosphorylated or unphosphorylated fluorescently labelled substrate peptide at the end of an enzymatic reaction. These different states of peptide are resolved by applying a potential difference across the sample. The presence of the charged phosphate group on the product (as opposed to the substrate) causes a different peptide mobility between the two peptides. This is visualized by excitation of the fluorescent label on the substrate and product peptides and represented as peaks within the analysis software.
In order to measure inhibitor activity of kinase inhibitors on this technology, a TTP Mosquito liquid handling instrument is used to place 0.25 ul of the appropriate concentration of inhibitor in 100% DMSO (for a dose response curve calculation) into each well of a 384-well plate. To this reaction components are added to a final volume of 25 ul. The table below indicates the sequences and concentrations for the assays described in this report. Standard components are 1 mM DTT (Sigma, D0632), 1 mM MgCl2 (Sigma, M1028), 100 mM HEPES pH 7.5 (Calbiochem, 391338), 0.015% Brij-35 (Sigma, B4184).
The reaction is incubated for 90 min at 25 C, and then stopped by the addition of 70 ul of Stop buffer (100 mM HEPES pH 7.5, 0.015% Brij-35, 10 mM EDTA (Sigma, E7889)).
The plate is read on a Caliper LC 3000 in an Off-Chip mobility shift assay format, on a 12-sipper chip. Unphosphorylated substrate and phosphorylated product peptide resolve as separate peaks allowing direct measurement of percentage of conversion of substrate to product. The percent conversion can be plotted against concentration of inhibitor to produce a sigmoidal dose response curve, from which an IC50 can be calculated using GeneData Condoseo or a similar product. Cellular activity assays

A further assay concerns the target T4, ZAP-70 (Homo sapiens, UniProt P43403).
T4 construct: purchased BPS Bioscience, CA, USA
T4 sequence (P43403 1-619): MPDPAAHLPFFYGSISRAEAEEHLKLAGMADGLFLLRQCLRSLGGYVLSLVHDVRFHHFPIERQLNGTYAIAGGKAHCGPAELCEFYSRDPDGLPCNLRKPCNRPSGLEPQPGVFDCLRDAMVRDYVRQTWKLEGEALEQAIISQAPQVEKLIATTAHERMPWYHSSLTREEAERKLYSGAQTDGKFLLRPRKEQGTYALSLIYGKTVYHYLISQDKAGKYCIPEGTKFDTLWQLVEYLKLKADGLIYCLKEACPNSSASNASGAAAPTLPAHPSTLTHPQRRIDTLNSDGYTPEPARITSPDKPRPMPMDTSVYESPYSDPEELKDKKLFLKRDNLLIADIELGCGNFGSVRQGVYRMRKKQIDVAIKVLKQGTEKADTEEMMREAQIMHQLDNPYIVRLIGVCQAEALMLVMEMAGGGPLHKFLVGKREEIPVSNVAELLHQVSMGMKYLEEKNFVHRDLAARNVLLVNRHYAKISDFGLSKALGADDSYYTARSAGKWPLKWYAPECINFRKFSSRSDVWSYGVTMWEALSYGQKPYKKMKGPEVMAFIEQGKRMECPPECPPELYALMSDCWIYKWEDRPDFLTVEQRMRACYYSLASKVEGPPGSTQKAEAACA
Put plainly: Zap70 enzymatic assay (Caliper LifeSciences technology). Type of assay: biochemical. Put shortly: as §1

The next assay has as its target GCN2 (Homo sapiens, UniProt Q9P2K8). Put plainly: GCN2 kinase TR-FRET (Lanthascreen) assay. Type of assay: biochemical. An excerpt: GCN2: Assay Principle & Conditions
This assay can quantificate the activity of the serin kinase GCN2 (general control non-derepressible-2).
This kinase is involved in the stress metabolism of cells. It is activated upon starvation (amino acid depletion). Its natural substrate is eIF2a (eukaryotic initiation factor 2 alpha subunit), a translation factor, which gets activated (phosphorylated) by GCN2 in case of an amino acid bottleneck in the cells. This in turn leads to a halt of the protein synthesis. Inhibition of GCN2 results in stopping this mechanism: The cell can not stop protein production upon “starvation” stress.
The assay is run in two steps: the enzymatic reaction and the detection step. In the first step GCN2 is incubated with 10 μM ATP and 80 nM of the GFP-labelled substrate eIF2alpha at room temperature.
The enzymatic reaction is stopped by addition of EDTA. The amount of phosphorylated eIF2alpha is determined by TR-FRET (Lanthascreen): A complex is formed consisting of antibody and GFP labelled phospho-eIF2a, which allows a FRET upon exitation at 340 nm.
The GCN2-activity is directly proportional to the ratio of fluorescence units at the emission wavelengthh 520 nm (phosphopeptide-sensitive wavelength=emission of GFP) to the units at 495 nm (reference wavelength=emission of Terbium-chelate).
Assay Procedure • 4 uL enzyme solution (in assay buffer) • 1.5 uL compound (in cmpd dilution buffer/6.3% DMSO) • Incubation 20 min at RT • 4 uL substrate/ATP mix (in assay buffer) • Incubation 90 min at RT • 10 uL stop/detection mix (in antibody dilution buffer) • Incubation 60 min at RT • Readout Lanthascreen 340/495/5204
A general note: Time-resolved FRET reads energy transfer from a long-lived donor to a nearby acceptor.

T3 sequence (P12931 whole entry): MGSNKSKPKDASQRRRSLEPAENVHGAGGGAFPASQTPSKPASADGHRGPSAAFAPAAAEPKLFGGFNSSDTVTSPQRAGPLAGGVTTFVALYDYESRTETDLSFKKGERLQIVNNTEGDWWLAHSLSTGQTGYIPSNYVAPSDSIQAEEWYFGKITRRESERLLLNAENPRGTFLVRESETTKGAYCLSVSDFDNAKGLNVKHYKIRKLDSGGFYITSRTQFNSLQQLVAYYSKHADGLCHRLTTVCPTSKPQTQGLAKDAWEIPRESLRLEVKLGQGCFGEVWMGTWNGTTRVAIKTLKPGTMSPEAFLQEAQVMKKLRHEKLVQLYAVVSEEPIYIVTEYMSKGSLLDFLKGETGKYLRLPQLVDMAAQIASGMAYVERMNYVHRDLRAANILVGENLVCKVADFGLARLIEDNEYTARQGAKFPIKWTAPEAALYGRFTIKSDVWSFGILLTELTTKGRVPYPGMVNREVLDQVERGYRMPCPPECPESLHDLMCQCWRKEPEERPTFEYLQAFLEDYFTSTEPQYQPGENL
T2 sequence (P35968 20-1356): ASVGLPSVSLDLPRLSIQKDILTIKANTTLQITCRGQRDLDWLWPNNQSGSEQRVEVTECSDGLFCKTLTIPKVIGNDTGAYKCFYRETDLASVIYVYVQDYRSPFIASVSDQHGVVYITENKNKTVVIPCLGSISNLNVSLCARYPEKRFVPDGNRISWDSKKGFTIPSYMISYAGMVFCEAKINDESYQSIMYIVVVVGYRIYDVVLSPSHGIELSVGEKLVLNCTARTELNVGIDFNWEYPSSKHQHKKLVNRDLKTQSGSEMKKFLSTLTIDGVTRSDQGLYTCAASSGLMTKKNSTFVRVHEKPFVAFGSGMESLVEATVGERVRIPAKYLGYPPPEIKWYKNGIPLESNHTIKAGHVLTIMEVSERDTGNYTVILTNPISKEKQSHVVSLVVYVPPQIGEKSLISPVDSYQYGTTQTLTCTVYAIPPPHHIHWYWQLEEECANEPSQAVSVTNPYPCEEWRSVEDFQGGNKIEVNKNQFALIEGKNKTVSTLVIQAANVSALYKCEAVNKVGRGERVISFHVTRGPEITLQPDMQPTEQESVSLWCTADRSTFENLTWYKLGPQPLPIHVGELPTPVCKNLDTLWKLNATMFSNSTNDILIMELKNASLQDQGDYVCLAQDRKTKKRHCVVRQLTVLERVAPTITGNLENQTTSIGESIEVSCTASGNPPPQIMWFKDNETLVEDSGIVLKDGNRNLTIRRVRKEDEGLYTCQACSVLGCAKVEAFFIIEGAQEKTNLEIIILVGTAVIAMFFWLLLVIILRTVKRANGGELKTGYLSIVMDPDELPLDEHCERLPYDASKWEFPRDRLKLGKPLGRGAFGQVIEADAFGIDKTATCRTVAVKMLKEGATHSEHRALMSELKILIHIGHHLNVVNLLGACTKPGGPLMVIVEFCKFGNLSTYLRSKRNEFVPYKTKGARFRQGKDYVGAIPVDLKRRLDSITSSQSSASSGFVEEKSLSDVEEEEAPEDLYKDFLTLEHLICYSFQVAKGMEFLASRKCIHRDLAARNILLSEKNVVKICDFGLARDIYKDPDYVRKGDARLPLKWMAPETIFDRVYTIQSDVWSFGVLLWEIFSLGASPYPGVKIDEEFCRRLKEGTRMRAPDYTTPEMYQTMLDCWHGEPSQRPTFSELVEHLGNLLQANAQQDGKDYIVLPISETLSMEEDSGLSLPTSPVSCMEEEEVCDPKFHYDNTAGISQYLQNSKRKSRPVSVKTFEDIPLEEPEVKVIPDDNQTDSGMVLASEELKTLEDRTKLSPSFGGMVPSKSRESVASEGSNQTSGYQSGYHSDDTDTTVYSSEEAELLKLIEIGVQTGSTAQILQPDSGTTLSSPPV
Sequence of GCN2 (Q9P2K8 whole entry, species assumed): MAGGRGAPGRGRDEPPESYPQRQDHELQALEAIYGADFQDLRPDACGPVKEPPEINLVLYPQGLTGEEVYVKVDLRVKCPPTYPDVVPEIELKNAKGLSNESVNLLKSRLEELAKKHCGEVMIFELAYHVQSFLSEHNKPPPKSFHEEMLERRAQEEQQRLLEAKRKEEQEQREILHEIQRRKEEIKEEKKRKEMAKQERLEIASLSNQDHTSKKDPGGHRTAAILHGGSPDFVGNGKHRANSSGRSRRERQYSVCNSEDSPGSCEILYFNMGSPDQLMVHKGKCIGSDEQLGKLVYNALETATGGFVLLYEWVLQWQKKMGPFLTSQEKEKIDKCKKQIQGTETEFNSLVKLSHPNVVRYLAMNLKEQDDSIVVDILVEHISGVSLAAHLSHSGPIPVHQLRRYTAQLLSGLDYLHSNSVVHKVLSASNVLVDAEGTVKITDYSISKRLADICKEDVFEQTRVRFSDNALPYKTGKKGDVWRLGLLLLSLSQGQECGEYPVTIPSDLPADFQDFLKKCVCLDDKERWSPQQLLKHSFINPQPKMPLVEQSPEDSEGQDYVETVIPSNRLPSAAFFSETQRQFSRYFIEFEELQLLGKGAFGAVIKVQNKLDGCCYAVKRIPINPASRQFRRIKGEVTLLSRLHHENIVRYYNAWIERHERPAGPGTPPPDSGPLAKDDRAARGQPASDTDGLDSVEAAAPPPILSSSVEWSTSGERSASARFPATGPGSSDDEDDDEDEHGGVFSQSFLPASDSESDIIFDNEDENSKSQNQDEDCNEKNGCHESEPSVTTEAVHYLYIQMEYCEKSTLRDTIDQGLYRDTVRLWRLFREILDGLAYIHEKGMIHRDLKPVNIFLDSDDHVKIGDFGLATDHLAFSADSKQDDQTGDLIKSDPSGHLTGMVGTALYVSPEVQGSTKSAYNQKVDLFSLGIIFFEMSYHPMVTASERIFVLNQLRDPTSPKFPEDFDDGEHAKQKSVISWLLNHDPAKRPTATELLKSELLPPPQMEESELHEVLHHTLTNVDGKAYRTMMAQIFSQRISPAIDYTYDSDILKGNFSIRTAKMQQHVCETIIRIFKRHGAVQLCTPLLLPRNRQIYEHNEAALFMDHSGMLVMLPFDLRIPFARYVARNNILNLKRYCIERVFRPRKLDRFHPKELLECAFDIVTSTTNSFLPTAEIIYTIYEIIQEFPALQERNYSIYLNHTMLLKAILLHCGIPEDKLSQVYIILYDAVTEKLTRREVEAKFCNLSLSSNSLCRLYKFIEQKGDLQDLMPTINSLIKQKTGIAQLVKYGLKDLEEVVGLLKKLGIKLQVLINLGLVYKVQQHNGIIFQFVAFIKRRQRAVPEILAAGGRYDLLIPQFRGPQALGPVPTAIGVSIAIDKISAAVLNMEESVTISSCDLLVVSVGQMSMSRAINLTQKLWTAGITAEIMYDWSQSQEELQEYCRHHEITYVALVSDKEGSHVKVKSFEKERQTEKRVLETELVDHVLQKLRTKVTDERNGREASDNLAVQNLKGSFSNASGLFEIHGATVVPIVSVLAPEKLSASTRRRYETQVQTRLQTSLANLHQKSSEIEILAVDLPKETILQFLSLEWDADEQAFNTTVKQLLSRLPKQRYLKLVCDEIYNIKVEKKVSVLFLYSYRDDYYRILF

The IC50 is the midpoint of a concentration-inhibition curve. In the case of `NCc1cccc(-c2nccn3nc(Nc4ccc(N5CCOCC5)cc4)nc23)c1` [Example C253, [8-(3-Aminomethyl-phenyl)-[1,2,4]triazolo[1,5-a]pyrazin-2-yl]-(4-morpholin-4-yl-phenyl)-amine], the IC50 at Syk is < 0.3 µM; on KDR, < 0.3 µM; in the assay with Ramos cells, 3 to 50 µM; against Src, 0.3 to 3 µM.
With `c1ccc2ncc(-c3nccn4nc(Nc5ccc(N6CCOCC6)cc5)nc34)cc2c1` [Example C261], the IC50 on Syk is < 0.3 µM; at ZAP-70, 3 to 50 µM; at KDR it was < 0.3 µM; in the assay on Ramos cells, 3 to 50 µM; against Src it was 0.3 to 3 µM.
With `c1cnc2cc(-c3nccn4nc(Nc5ccc(N6CCOCC6)cc5)nc34)ccc2c1` [Example C265, (4-Morpholin-4-yl-phenyl)-(8-quinolin-7-yl-[1,2,4]triazolo[1,5-a]pyrazin-2-yl)-amine], the IC50 on Syk was < 0.3 µM; at ZAP-70, 0.3 to 3 µM; against KDR, < 0.3 µM; in the assay with Ramos cells, 3 to 50 µM; at Src it was 0.3 to 3 µM.
Turning to `COc1cc(Nc2nc3c(-c4cccc(O)c4)nccn3n2)cc(OC)c1` [Example C268, 3-[2-(3,5-Dimethoxy-phenylamino)-[1,2,4]triazolo[1,5-a]pyrazin-8-yl]-phenol], the IC50 was < 0.3 µM at Syk; 0.3 to 3 µM against ZAP-70; < 0.3 µM against KDR; 3 to 50 µM with Ramos cells; 0.3 to 3 µM against Src.
As for `COc1cc(Nc2nc3c(-c4cccc(NS(C)(=O)=O)c4)nccn3n2)cc(OC)c1` [Example C272, N-{3-[2-(3,5-Dimethoxy-phenylamino)-[1,2,4]triazolo[1,5-a]pyrazin-8-yl]-phenyl}-methanesulfonamide], the IC50 is < 0.3 µM at Syk; 0.3 to 3 µM at ZAP-70; < 0.3 µM against KDR; 3 to 50 µM in the assay with Ramos cells; 0.3 to 3 µM against Src.
For `COc1cc(Nc2nc3c(-c4ccccc4-c4ccccc4)nccn3n2)cc(OC)c1` [Example C284, (8-Biphenyl-2-yl-[1,2,4]triazolo[1,5-a]pyrazin-2-yl)-(3,5-dimethoxy-phenyl)-amine], the results for the IC50 at Syk and with Ramos cells were < 0.3 µM and 3 to 50 µM, respectively.
In the case of `Cc1nc2cc(Nc3nc4c(-c5cnn(C)c5)nccn4n3)ccc2[nH]1` [Example D1, (2-Methyl-1H-benzoimidazol-5-yl)-[8-(1-methyl-1H-pyrazol-4-yl)-[1,2,4]triazolo[1,5-a]pyrazin-2-yl]-amine], the IC50 at Syk is < 0.3 µM; against KDR it was 0.3 to 3 µM; in the assay with Ramos cells, 3 to 50 µM; against Src, 0.3 to 3 µM.
As for `COCC(O)Cn1cc(-c2nccn3nc(Nc4ccc(N5CCOCC5)cc4)nc23)cn1` (stereo not drawn) [Example D6, 1-Methoxy-3-{4-[2-(4-morpholin-4-yl-phenylamino)-[1,2,4]triazolo[1,5-a]pyrazin-8-yl]-pyrazol-1-yl}-propan-2-ol], the concentration for half-maximal inhibition (IC50) at Syk is 0.3 to 3 µM; against ZAP-70, 3 to 50 µM; at KDR, 0.3 to 3 µM; against Src it was 0.3 to 3 µM.
As to `c1cc(-c2nccn3nc(Nc4ccc(N5CCOCC5)cc4)nc23)c2cc[nH]c2c1` [Example D10, [8-(1H-Indol-4-yl)-[1,2,4]triazolo[1,5-a]pyrazin-2-yl]-(4-morpholin-4-yl-phenyl)-amine], the IC50 was < 0.3 µM at Syk; 3 to 50 µM at ZAP-70; < 0.3 µM on KDR; 3 to 50 µM in the assay on Ramos cells; < 0.3 µM on Src.
On to `CN1CCN(c2ccc(Nc3nc4c(-c5ccc6c(cnn6C)c5)nccn4n3)cc2)CC1` [Example D15, [8-(1-Methyl-1H-indazol-5-yl)-[1,2,4]triazolo[1,5-a]pyrazin-2-yl]-[4-(4-methyl-piperazin-1-yl)-phenyl]-amine], for which the IC50 on Syk was < 0.3 µM; against ZAP-70 it was 3 to 50 µM; against KDR it was 0.3 to 3 µM; in the assay with Ramos cells, 3 to 50 µM; on Src it was 0.3 to 3 µM.
For `CN1CCN(c2ccc(Nc3nc4c(-c5cnn(C)c5)nccn4n3)cc2)CC1` [Example D18, [4-(4-Methyl-piperazin-1-yl)-phenyl]-[8-(1-methyl-1H-pyrazol-4-yl)-[1,2,4]triazolo[1,5-a]pyrazin-2-yl]-amine], the IC50 on Syk was < 0.3 µM; on ZAP-70, 3 to 50 µM; on KDR, 0.3 to 3 µM; in the assay with Ramos cells, 3 to 50 µM; against Src, 0.3 to 3 µM.
Take `COc1cc(Nc2nc3c(N4CCCC4c4ccccn4)nccn3n2)cc(OC)c1` (stereo not drawn) [Example D21, (3,5-Dimethoxy-phenyl)-[8-(2-pyridin-2-yl-pyrrolidin-1-yl)-[1,2,4]triazolo[1,5-a]pyrazin-2-yl]-amine]: the IC50 was 0.3 to 3 µM at Syk, 3 to 50 µM against ZAP-70, 3 to 50 µM against KDR and 3 to 50 µM against Src.
As for `CN1CCN(c2ccc(Nc3nc4c(-c5cnc6ccccc6c5)nccn4n3)cc2)CC1` [Example D23, [4-(4-Methyl-piperazin-1-yl)-phenyl]-(8-quinolin-3-yl-[1,2,4]triazolo[1,5-a]pyrazin-2-yl)-amine], the IC50 on Syk is < 0.3 µM; at ZAP-70 it was 3 to 50 µM; against KDR, 0.3 to 3 µM; with Ramos cells, 3 to 50 µM; on Src it was < 0.3 µM.
Turning to `Cc1cc(C)cc(Nc2nc3c(-c4ccc(N5CCOCC5)cc4)nccn3n2)c1` [Example E2], the IC50 at GCN2 is < 10 µM.
With `FC(F)(F)c1cccc(Nc2nc3c(-c4ccc(N5CCOCC5)cc4)nccn3n2)c1` [Example E3], the half-maximal inhibitory concentration (IC50) at GCN2 was < 10 µM.

Values taken from patent US9023851B2 (Merck Patent GmbH, priority 2010, dated 2015).
